{"source": "patent US20250387398A1", "about": "“NEW HIGH-EFFICIENCY ANTIMICROBIAL COMPOSITION” (CM4CURE S.A., priority 2023, published 2025)", "key": {"[1]": {"settings": "background, cited from earlier work"}, "Porphyromonas gingivalis": {"system": "Porphyromonas gingivalis", "settings": "cited from earlier work"}, "[2]": {"system": "Staphylococcus aureus MRSA", "settings": "cited from earlier work"}, "Streptococcus mutans": {"system": "Streptococcus mutans", "settings": "cited from earlier work"}, "[3]": {"system": "Lactobacillus acidophilus", "settings": "cited from earlier work"}, "Candida tropicalis": {"system": "Candida tropicalis", "settings": "cited from earlier work"}, "Candida krusei": {"system": "Candida krusei", "settings": "cited from earlier work"}, "Fusobacterium nucleatum": {"system": "Fusobacterium nucleatum", "settings": "cited from earlier work"}, "[4]": {"system": "Staphylococcus aureus (MRSA, ATCC 6538)", "experiment": "Real-time microcalorimetric measurement of metabolic activity (Calscreener)", "format": "cell-based", "procedure": "Staphylococcus aureus (MRSA, ATCC 6538) was grown overnight in TSB (tryptic soy broth) medium, before being diluted 1×10^6 fold in fresh TSB. Subsequently […] aliquots of diluted bacteria suspensions were respectively supplemented with 1 and 2 mg/L of chlorhexidine (digluconate solution, 20% in H2O, Merck). […] The aqueous solution of chlorhexidine and the ethanol-based solution of triafluocyl were kept refrigerated. Chlorhexidine, triafluocyl or both, and ethanol as a vehicle were added to the bacterial suspensions to obtain the given concentrations followed by a brief vortexing. Bacterial aliquots were then distributed in the dedicated non-activated inserts of a 48-well plate and grown for 24 h or more under static conditions at 37 C using Calscreener technology to measure bacterial growth and metabolic activity in Real-Time as described in https://cordis.europa.eu/project/id/784514.\nIn FIG. 3, one sees the real-time microcalorimetric measurements of bacterial metabolic activity expressed as the heat flow, providing S. aureus as an example of Gram-positive bacteria strain. The line A stands for control bacteria with a vehicle at 0.66% ethanol in TSB, whereas the line B represents bacteria treated respectively with 1 mg/L of triafluocyl; C—1 mg/L of chlorhexidine; D—2 mg/L of chlorhexidine; and E—1 mg/L of chlorhexidine with 1 mg/L of triafluocyl.\nStaphylococcus aureus (MRSA, ATCC 6538) was grown overnight in TSB (tryptic soy broth) medium, before being diluted 1×10^6 fold in fresh TSB. Subsequently […] aliquots of diluted bacteria suspensions were respectively supplemented with 0.25, 0.5 and 1 μg/mL of chlorhexidine (digluconate solution, 20% in H2O, Merck) or alexidine dihydrochloride (stock solution of 3 mg/mL in ethanol, Merck).\nThe aqueous solution of chlorhexidine and the ethanol-based solution of alexidine were kept refrigerated. Chlorhexidine, alexidine, and ethanol as a vehicle were added to the bacterial suspensions to obtain the given concentrations followed by a brief vortexing. Bacterial aliquots were then distributed in the dedicated non-activated inserts of a 48-well plate and grown for 24 h or more under static conditions at 37 C using Calscreener technology to measure bacterial growth and metabolic activity in Real-Time as described in https://cordis.europa.eu/project/id/784514.\nIn FIG. 4 the real-time microcalorimetric measurements of bacterial metabolic activity is expressed as the heat flow, providing S. aureus as an example. The line A stands for control bacteria with a vehicle (ethanol), whereas the line B represents bacteria treated respectively with 0.25 mg/mL of chlorhexidine; C—0.5 mg/mL of chlorhexidine; D—1 mg/mL of chlorhexidine; E—0.25 mg/mL of alexidine; F −0.5 mg/mL of alexidine; and G—1 mg/mL of alexidine.\nStaphylococcus aureus (MRSA, ATCC 6538) was grown overnight in TSB (tryptic soy broth) medium, before being diluted 1×10^6 fold in fresh TSB. Subsequently […] aliquots of diluted bacteria suspensions were respectively supplemented with […] of alexidine dihydrochloride (stock solution of 3 mg/mL in ethanol, Merck). […] The ethanol-based solutions of alexidine and fluometacyl were stored at −20° C. […]\nIn FIG. 5 real-time microcalorimetric measurements of bacterial metabolic activity is expressed as the heat flow, providing S. aureus as an example. […]"}, "[5]": {"system": "Pseudomonas aeruginosa (PA)", "experiment": "MIC in monotherapy and in combination (ISO standard 20776-1)", "format": "cell-based", "source_text": "(§1) Summary Of MIC values for Fluometacyl (FLC)+Chlorhexidine (CHX) Tested Against MRSA, Enterococcusfaecalis (VRE), Pseudomonas aeruginosa (PA) and Candida albicans (CA).\n(§2) By Minimum Inhibitory Concentration (MIC) one means the lowest concentration of antimicrobial that prevents visible growth of a microorganism (determined according to ISO standard 20776-1).\n(§3) This finds an implication in combining many known antimicrobials together rather than discovering new chemical entities."}, "Candida albicans (CA)": {"system": "Candida albicans (CA)", "experiment": "MIC in monotherapy and in combination (ISO standard 20776-1)", "format": "cell-based", "source_text": "as §1, §2, §3"}, "[6]": {"system": "Pseudomonas aeruginosa (ATCC 15442)", "experiment": "Real-time microcalorimetric measurement of metabolic activity (Calscreener)", "format": "cell-based", "procedure": "Pseudomonas aeruginosa (ATCC 15442) was grown overnight in TSB (tryptic soy broth) medium, before being diluted 1×10^7 fold in fresh TSB. Subsequently […] aliquots of diluted bacteria suspensions were respectively supplemented with 1, 2, 4, 6, 12 and 24 mg/L of chlorhexidine (digluconate solution, 20% in H2O, Merck). The aqueous solution of chlorhexidine was kept refrigerated according to the manufacturer's technical sheet. Chlorhexidine or mQH2O as a vehicle were added to the bacterial suspensions to obtain the given concentrations followed by a brief vortexing. Bacterial aliquots were then distributed in the dedicated non-activated inserts of a 48-well plate and grown for 24 h or more under static conditions at 37 C using Calscreener technology to measure bacterial growth and metabolic activity in Real-Time as described in https://cordis.europa.eu/project/id/784514.\nFor the study of the combination of chlorhexidine and triafluocyl aforementioned diluted bacterial suspensions were supplemented with either chlorhexidine alone (1, 2, 4, 6, 12 mg/L) or mixed with triafluocyl (20 mg/L, Polpharma). Triafluocyl was stored in absolute ethanol in the refrigerator at a concentration of 3 mg/mL. […]\nFIG. 1, illustrates a real-time microcalorimetric measurements of bacterial metabolic activity expressed as the heat flow, providing P. aeruginosa as an example. […]"}}, "note": "Read-outs that look alike come from different tables or passages of the source.", "data": [{"molecule": "[H]/N=C(\\N/C(=N/[H])NCCCCCCNC(=N)NC(=N)Nc1ccc(Cl)cc1)Nc1ccc(Cl)cc1", "note": "[Chlorhexidine, chlorhexidine]", "values": [{"measurement": "solubility in water", "setting": "[1]; chlorhexidine base", "value": "insoluble in water"}, {"measurement": "MIC of chlorhexdine", "setting": "Porphyromonas gingivalis", "value": 0.9, "unit": "µg/mL"}, {"measurement": "MIC of chlorhexdine", "setting": "[2]", "value": "2 to 8", "unit": "µg/mL"}, {"measurement": "MIC of chlorhexdine", "setting": "[2]; listed as chlorexhidrine", "value": "1 to 8", "unit": "µg/mL"}, {"measurement": "MIC of chlorhexdine", "setting": "[2]; listed as chlorhexidrine", "value": "1 to 8", "unit": "µg/mL"}, {"measurement": "MIC of chlorhexdine", "setting": "Streptococcus mutans", "value": "0.9 to 4", "unit": "µg/mL"}, {"measurement": "MIC of chlorhexdine", "setting": "[3]", "value": "0.5 to 2", "unit": "µg/mL"}, {"measurement": "MIC of chlorhexdine", "setting": "Candida tropicalis", "value": 75, "unit": "µg/mL"}, {"measurement": "MIC of chlorhexdine", "setting": "Candida krusei", "value": 150, "unit": "µg/mL"}, {"measurement": "MIC of chlorhexdine", "setting": "Fusobacterium nucleatum", "value": 1.8, "unit": "µg/mL"}, {"measurement": "effect on growth (heat flow)", "setting": "[4]; chlorhexidine 1 mg/L, FIG. 3", "value": "strong shift in a metabolic activity"}, {"measurement": "effect on growth (heat flow)", "setting": "[4]; chlorhexidine 1 mg/mL, FIG. 4", "value": "strong shift in a metabolic activity"}]}, {"molecule": "CCCSc1nc(N[C@@H]2C[C@H]2c2ccc(F)c(F)c2)c2nnn([C@@H]3C[C@H](O)[C@@H](O)[C@H]3O)c2n1", "note": "[Fluometacyl, (1S,2R,3S,4R)-4-[7-[[(1R,2S)-2-(3,4-Difluorophenyl)cyclopropyl]amino]-5-(propylthio)-3H-1,2,3-triazolo[4,5-d]pyrimidin-3-yl]-1,2,3-cyclopentanetriol]", "values": [{"measurement": "solubility in an aqueous environment or aqueous medium", "setting": "[1]", "value": "generally not soluble"}, {"measurement": "MIC Monotherapy (X)", "setting": "[5]", "value": "Not detected"}, {"measurement": "MIC Monotherapy (X)", "setting": "Candida albicans (CA)", "value": "Not detected"}]}, {"molecule": "CCCSc1nc(N[C@@H]2C[C@H]2c2ccc(F)c(F)c2)c2nnn([C@@H]3C[C@H](OCCO)[C@@H](O)[C@H]3O)c2n1", "note": "[Triafluocyl, (1S,2S,3R,5S)-3-[7-[(1R,2S)-2-(3,4-difluorophenyl)cyclopropylamino]-5-(propylthio)-3H-[1,2,3]-triazolo[4,5-d]pyrimidin-3-yl]-5-(2-hydroxyethoxy)-1,2-cyclopentanediol]", "values": [{"measurement": "solubility in an aqueous environment or aqueous medium", "setting": "[1]", "value": "generally not soluble"}, {"measurement": "effect on growth (heat flow)", "setting": "[6]; triafluocyl 20 mg/L, FIG. 2", "value": "does not inhibit the growth"}, {"measurement": "effect on growth (heat flow)", "setting": "[4]; triafluocyl 1 mg/L, FIG. 3", "value": "doesn't affect the growth"}]}, {"molecule": "alexidine", "values": [{"measurement": "effect on growth (heat flow)", "setting": "[6]; alexidine 4 mg/mL, FIG. 6", "value": "strong growth inhibition"}, {"measurement": "effect on growth (heat flow)", "setting": "[4]; alexidine 1 mg/mL, FIG. 4", "value": "full growth inhibition"}, {"measurement": "effect on growth (heat flow), compared with chlorhexidine", "setting": "[4]; alexidine 0.25 and 0.5 mg/mL, FIG. 4", "value": "noticeably stronger effect"}]}]}
